These are literature values, as cited in patent US20170042890A1, “METHODS OF REDUCING DECLINE IN VITAL CAPACITY” (Cytokinetics, Inc., priority 2014, published 2017).

The conditions of data set [1]: administered concomitantly with tirasemtiv; prior studies; cited from earlier work.
For the next data set, the system named is ALS. Particulars: cited from earlier work.

As for `Nc1nc2ccc(OC(F)(F)F)cc2s1` [riluzole], the Riluzole exposure entry in data set [1] is on record as “approximately doubled”. Moreover, the “Effect on measurable parameters of neuromuscular or pulmonary function” value with ALS is “does not improve”.
